Source: the CheMixHub viscosity set

Assay: xn = mol fraction of the nth substance listed

C=CCN=C=S + CCN(CC)c1ccccc1
303.15 K, 101 kPa
Details | viscosity [mPa·s]
x1 = 0.25 | 1.248
x1 = 0.5 | 1.007
x1 = 0.7 | 0.857
x1 = 0.75 | 0.822
x1 = 0.8 | 0.785

O=CN1CCOCC1 + Cc1ccccc1
298.15 K, 101.3 kPa
Details | viscosity [mPa·s]
x2 = 0.01784 | 7.177
x2 = 0.06829 | 6.102
x2 = 0.1881 | 4.224
x2 = 0.2675 | 3.336
x2 = 0.3466 | 2.653
x2 = 0.4247 | 2.155
x2 = 0.5094 | 1.701
x2 = 0.5956 | 1.359
x2 = 0.6849 | 1.099
x2 = 0.7722 | 0.879
x2 = 0.8479 | 0.759
x2 = 0.9178 | 0.646

CCC(=O)c1ccccc1 + CN(C)c1ccccc1
viscosity [mPa·s], 101 kPa
Details | 303.15 K | 308.15 K
x2 = 0.0658 | 1.475 | 1.429
x2 = 0.1256 | 1.445 | 1.398
x2 = 0.1989 | 1.411 | 1.362
x2 = 0.2531 | 1.388 | 1.338
x2 = 0.3331 | 1.358 | 1.305
x2 = 0.4074 | 1.332 | 1.279
x2 = 0.4755 | 1.309 | 1.254
x2 = 0.5265 | 1.293 | 1.237
x2 = 0.6121 | 1.268 | 1.21
x2 = 0.6923 | 1.249 | 1.187
x2 = 0.7625 | 1.229 | 1.167
x2 = 0.8156 | 1.217 | 1.155
x2 = 0.8625 | 1.208 | 1.144

CC(C)NC(C)C + CNC(C)=O
308.15 K, 101 kPa
Details | viscosity [mPa·s]
x2 = 0.0739 | 0.3617
x2 = 0.2151 | 0.5132
x2 = 0.3226 | 0.7392
x2 = 0.4754 | 1.069
x2 = 0.6497 | 1.625
x2 = 0.786 | 2.167
x2 = 0.8761 | 2.652
x2 = 0.9277 | 2.973
x2 = 0.9762 | 3.194

S=C=S + CCOCC
298.15 K, 101 kPa
Details | viscosity [mPa·s]
x2 = 0.1341 | 0.338
x2 = 0.3497 | 0.306
x2 = 0.6338 | 0.269

S=C=S + CCO
298.15 K, 101 kPa
Details | viscosity [mPa·s]
x1 = 0.1096 | 0.9448
x1 = 0.1264 | 0.9535
x1 = 0.1726 | 0.9065
x1 = 0.2241 | 0.8407
x1 = 0.2832 | 0.7621
x1 = 0.4039 | 0.6659
x1 = 0.5848 | 0.5669
x1 = 0.6266 | 0.5466
x1 = 0.7329 | 0.4926

CC(C)[C@H](NC(=O)[C@H](C)N)C(=O)O + O
viscosity [mPa·s], 101 kPa
Details | x1 = 3.62e-05 | x1 = 7.46e-05 | x1 = 0.000109 | x1 = 0.000142 | x1 = 0.0001835 | x1 = 0.0002124 | x1 = 0.0002514 | x1 = 0.0002793 | x1 = 0.0003251 | x1 = 0.0003549
305.15 K | 0.7756 | 0.7779 | 0.7783 | 0.7805 | 0.7822 | 0.7866 | 0.7955 | 0.8038 | 0.8095 | 0.8143
310.15 K | 0.7078 | 0.7083 | 0.7121 | 0.7125 | 0.7162 | 0.7192 | 0.7239 | 0.7284 | 0.7327 | 0.7351
315.15 K | 0.647 | 0.6501 | 0.6523 | 0.6554 | 0.6591 | 0.6601 | 0.6623 | 0.6675 | 0.6689 | 0.6701

FC(F)C(F)(F)F + FCF
viscosity [mPa·s], 101 kPa
Details | x1 = 0.247 | x1 = 0.49 | x1 = 0.744
298.15 K | 0.1177 | 0.12 | 0.1269
313.15 K | – | – | 0.1021

C=C(C)C(=O)OCCCC + CC#N
viscosity [mPa·s], 101 kPa
Details | 298.15 K | 303.15 K | 308.15 K | 313.15 K | 318.15 K
x2 = 0.0681 | 0.8436 | 0.7784 | 0.7223 | 0.6777 | 0.6423
x2 = 0.1359 | 0.8101 | 0.7487 | 0.6958 | 0.6537 | 0.6202
x2 = 0.1976 | 0.7793 | 0.7213 | 0.6713 | 0.6314 | 0.5995
x2 = 0.2728 | 0.7411 | 0.6872 | 0.6407 | 0.6035 | 0.5735
x2 = 0.3442 | 0.7043 | 0.6543 | 0.6111 | 0.5764 | 0.5483
x2 = 0.4143 | 0.6677 | 0.6215 | 0.5815 | 0.5492 | 0.5229
x2 = 0.4658 | 0.6405 | 0.5971 | 0.5594 | 0.5289 | 0.5039
x2 = 0.5243 | 0.6094 | 0.5691 | 0.534 | 0.5055 | 0.482
x2 = 0.5649 | 0.5876 | 0.5495 | 0.5162 | 0.4891 | 0.4665
x2 = 0.639 | 0.5475 | 0.5133 | 0.4834 | 0.4587 | 0.4379
x2 = 0.7112 | 0.508 | 0.4776 | 0.4508 | 0.4285 | 0.4095
x2 = 0.7836 | 0.468 | 0.4413 | 0.4178 | 0.3978 | 0.3805
x2 = 0.8558 | 0.4277 | 0.4048 | 0.3844 | 0.3668 | 0.3512
x2 = 0.928 | 0.3871 | 0.3679 | 0.3506 | 0.3353 | 0.3214
